Series [1] relates to L. infantum promastigotes. Briefly: Inhibition of promastigote growth (MTT). The following applies: for IC50: Leishmania infantum, 72 h, MTT. The class given is cell-based. As to the method: Promastigote (the extracellular stage of the Leishmania life cycle) growth inhibition was evaluated using L. infantum strain (MHOM/TN/80/IPT1). […] Promastigotes were grown in Schneider’s Drosophila medium (SIGMA) containing 10% Fetal Calf Serum (FCS) (GIBCO-BRL) and 2% gentamicin (50 mg/L) (Sigma) at 22°C. Parasites were adjusted to 1 × 10^6 parasites/mL, and 200 μL of suspension was seeded in triplicate in 96-well flat bottom microplates and incubated with varying concentrations of compound. […] Each experiment was done in triplicate for each drug concentration and two independent experiments were performed. After 72 h of incubation, 30 μL of MTT was added to each well and plates were further incubated for 2 h. The absorbance at 550 nm was measured with a 96-well scanner (DINEX Technologies, VA, USA). Anti-leishmanial activity per experimental point was expressed as mean percentage of inhibition with respect to vehicle treated parasites (0%). In addition, the promastigote vitality was followed by microscopic observation after 72 h. Data were analyzed and plotted by Prism (GraphPad, San Diego, USA).

For series [2], the target named is T1, L. infantum TR (Leishmania infantum, UniProt A4HSF7).
T1 construct: made in house
The series is described as follows: Luminescence-based (NADPH-Glo) TR enzymatic assay. In kind it is biochemical. An excerpt:
(§1) L. infantum TR was cloned and purified as previously described.[9, 28] Bovine serum albumin (BSA), NADPH, auranofin, hGR, oxidized glutathione (GSSG) and DTNB were purchased from Sigma-Aldrich (St. Louis, MO); oxidized trypanothione (TS2) was purchased from Bachem (Bubendorf, Switzerland); the NADPH-Glo kit was purchased from Promega (Madison, WI, U.S.A.). Compounds, dissolved in DMSO, were transferred to 384-well white plates (Greiner Bio One, Frickenhausen, Germany) using the acoustic droplet ejection technology (ATS-100, EDC Biosystems, U.S.A.) to reach the desired final concentration. The TR enzymatic reaction was performed by addition of 0.1 nM TR, 12.5 μM NAPDH, 15 μM TS2 in 50 mM HEPES (pH 7.4), 40 mM NaCl, 0.01% BSA in a final volume of 15 μL. After 60 min of incubation at room temperature, an equal volume of NADPH-Glo reagent was added and the luminescent signal was acquired by an EnVision plate reader (PerkinElmer, Waltham, MA, U.S.A.). […] In addition, in order to make sure that the production of a reducing agent (i.e. T(SH)2) by the TR activity was not going to interfere with the assay, and in absence of T(SH)2 as purified reagent, the effect of DTT and GSH was tested on the NADPH-Glo reaction resulting in no interference at concentrations relevant for the current setup (S2 Fig). The hGR assay was performed by addition of 0.5 nM hGR, 10 μM GSSG, 20 μM NADPH in 50 mM HEPES (pH 7.4), 40 mM NaCl, 0.01% BSA in a final volume of 15 μL. After 30 min incubation at room temperature 15 μl of NADPH-Glo kit was added to reveal the signal. The 5,5′-dithiobis(2-nitrobenzoic acid) (DTNB) assay was performed using 2 nM TR, 100 μM NADPH, 4 μM TS2 and 200 μM DTNB in 40 mM HEPES (pH 7.4), 1 mM EDTA, 0.01% BSA and 0.05% tween-20 in a final volume of 50 μl. The absorbance signal (412 nm) was acquired 15 minutes post incubation at room temperature using the plate reader (Safire2, Tecan, Switzerland). Results were analyzed using Prism software (GraphPad, San Diego, CA, U.S.A.) and Vortex (Dotmatics, Bioshops Stortford, UK). Dose-response curves were fitted by four-parameter logistic regression.

The target of series [3] is T1, L. infantum TR. The series is described as follows: DTNB absorbance-based TR assay. In kind it is biochemical.
Source text: as §1, with “The 5,5′-dithiobis(2-nitrobenzoic acid) (DTNB) assay was performed using 2 nM TR, 100 μM NADPH, 4 μM TS2 and 200 μM DTNB in 40 mM HEPES (pH 7.4), 1 mM EDTA, 0.01% BSA and 0.05% tween-20 in a final volume of 50 μl.” left out

Series [4] deals with T2, human glutathione reductase (hGR) (Homo sapiens, UniProt P00390).
T2 construct: purchased Sigma-Aldrich
T2 sequence (P00390 44-522): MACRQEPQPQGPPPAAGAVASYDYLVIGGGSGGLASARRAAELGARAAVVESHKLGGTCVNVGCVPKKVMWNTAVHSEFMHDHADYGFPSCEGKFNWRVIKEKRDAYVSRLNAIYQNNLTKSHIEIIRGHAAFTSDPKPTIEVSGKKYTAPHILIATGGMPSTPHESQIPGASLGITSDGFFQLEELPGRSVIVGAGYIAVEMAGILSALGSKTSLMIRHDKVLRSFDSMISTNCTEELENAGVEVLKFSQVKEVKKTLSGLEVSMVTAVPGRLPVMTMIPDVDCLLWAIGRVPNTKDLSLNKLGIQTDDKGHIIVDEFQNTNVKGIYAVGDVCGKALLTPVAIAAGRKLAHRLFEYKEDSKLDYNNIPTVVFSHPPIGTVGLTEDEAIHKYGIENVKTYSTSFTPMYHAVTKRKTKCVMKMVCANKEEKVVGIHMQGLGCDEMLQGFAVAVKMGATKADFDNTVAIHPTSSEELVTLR
The series is described as follows: hGR assay (NADPH-Glo). In kind it is biochemical. As to conditions: for IC50: n=3.
Source text: as §1

The target in series [5] is T3, TR (Leishmania infantum, UniProt A4HSF7).
T3 construct: made in house
The series is described as follows: Binding assay by SPR. Here is the method: Surface plasmon resonance (SPR) interaction analysis was performed using a Biacore T200 (GE Healthcare, Uppsala, Sweden). TR was immobilized on a CM4 chip by amine coupling according to manufacturer’s instructions (Amine Coupling Kit, GE Healthcare, Uppsala, Sweden). Briefly, the surface of the sensor chip was activated for 7 min using a mixture of 0.1 M N-hydroxy succinimide (NHS) and 0.4 M N-ethyl-N’-[3-dimethyl-aminopropyl] carbodiimide (EDC) then 25 μg/mL of TR in 10 mM sodium acetate (pH 5.0) was injected for 360 s at 10 μl/min, finally residual activated groups on the surface were blocked by a 7-min injection of 1 M ethanolamine (pH 8.5). A reference channel for background subtraction was prepared by activation with EDC/NHS mixture (0.1 M/0.4 M as per ligand immobilization), followed by blocking with 1 M ethanolamine. The binding of the selected hit to the immobilized ligand was evaluated by a multi-cycle kinetic procedure in 50 mM HEPES pH 7.4, 40 mM NaCl, 0.05% Tween-20 supplemented with 2% DMSO (Sigma Aldrich). The analyte was injected for 20 s at 30 μl/min until equilibrium and dissociation monitored for 120 s. A standard curve of DMSO was included for solvent correction. Biomolecular binding events were reported as changes of resonance units (RUs) over time. The data were analysed by the Biacore T200 evaluation software: specific sensorgrams were obtained for the analyte, by subtracting the signals of the reference channel to those of the TR-immobilized one, and corrected for DMSO interference from DMSO standard curve. The binding affinity was evaluated at steady state whereas the kinetic parameters were calculated by a one-phase association and two-phase dissociation model using the Prism software (GraphPad, San Diego, CA, U.S.A.)
(In general: In SPR one partner is held on a chip, and binding of the other changes the refractive index at the surface.)

In series [6] the target is T3, TR. The series is described as follows: Competition assay with TS2 or NADPH. The following applies: 4, 16, 64 μM compound. In kind it is biochemical. Here is the method:
Competition assays were performed using three test concentrations (4, 16 and 64 μM) for the competing compounds. The reaction buffer and components were mostly identical to those used in the TR assay described above, but 1 nM TR was employed for 5 minutes against a serial dilution of either TS2 in presence of 40 μM NADPH or NADPH in presence of 30 μM TS2. The residual amount of NADPH was measured using the NADPH-Glo kit (Promega, U.S.A.) after 30 min incubation at room temperature as per the manufacturer’s protocol. The luminescent signal was measured using the EnVision plate reader (PerkinElmer, USA). IC50, Vmax, and Km values were calculated using Prism software (GraphPad, San Diego, CA, U.S.A.).
The NADPH concentration for the TS2 dilutions was 40 μM while the TS2 concentration for the NADPH dilutions was 30 μM.

Series [7] in a line: Solubility in assay buffer. The following applies: aqueous buffer. In kind it is physicochemical.
Series [8] has as its target T3, TR. Also noted: method as in PMID 26033467. As to conditions: read-out: TS2 Km; cited from earlier work.
Where [9] appears, read: Fig 5, read-out: IC50 (TR inhibition potency).

Structures are written as SMILES. Like-named read-outs stand apart in the source and are kept apart here.

By Kd is commonly meant a measure of binding affinity in units of concentration. As a reminder, the kon is a measure of how fast the partners come together. A lower kon goes with slow association. The solubility is the concentration that dissolves in the medium under given conditions. Higher therefore signals a readily soluble substance. One may read the Km as the concentration of substrate that gives half-maximal velocity.

T3 sequence (A4HSF7 1-491): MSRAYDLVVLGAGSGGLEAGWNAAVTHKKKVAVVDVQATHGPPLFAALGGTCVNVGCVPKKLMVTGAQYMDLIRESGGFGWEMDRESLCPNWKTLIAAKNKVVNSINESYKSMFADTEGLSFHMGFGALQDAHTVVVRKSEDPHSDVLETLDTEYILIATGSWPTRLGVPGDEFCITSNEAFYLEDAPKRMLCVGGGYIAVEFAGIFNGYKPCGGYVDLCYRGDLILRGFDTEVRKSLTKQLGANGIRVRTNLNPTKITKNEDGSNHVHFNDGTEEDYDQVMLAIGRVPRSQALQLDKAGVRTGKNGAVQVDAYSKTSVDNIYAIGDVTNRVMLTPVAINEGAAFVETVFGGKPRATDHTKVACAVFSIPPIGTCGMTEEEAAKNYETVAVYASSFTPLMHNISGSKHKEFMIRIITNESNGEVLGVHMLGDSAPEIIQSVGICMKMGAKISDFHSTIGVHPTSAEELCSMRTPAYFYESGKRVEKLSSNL
T1 sequence (A4HSF7 entry or part of it): as the sequence (A4HSF7 1-491) above

`C[C@@H]1[C@H](O)[C@@H](C)/C=C/C=C/C=C/C=C/C=C/C=C/C=C/[C@H](O[C@@H]2O[C@H](C)[C@@H](O)[C@H](N)[C@@H]2O)C[C@@H]2O[C@](O)(C[C@@H](O)C[C@@H](O)[C@H](O)CC[C@@H](O)C[C@@H](O)CC(=O)O[C@H]1C)C[C@H](O)[C@H]2C(=O)O` [Amphotericin B, reference compound] came in with an IC50 in series [1] of 0.5 µM.
Consider `CC(=O)OC[C@H]1O[C@@H]([S-])[C@H](OC(C)=O)[C@@H](OC(C)=O)[C@@H]1OC(C)=O.CCP(CC)CC.[Au+]` [Auranofin, reference compound], for which the IC50 amounted to 6.6 ± 1.05 µM in series [2] (dose-response, Fig 3D, read-out: potency, luminescent assay) and 0.154 ± 0.0107 µM in series [3] (dose-response, Fig 3D, read-out: potency, DTNB assay).
`O=C(N/N=C/c1ccc([N+](=O)[O-])s1)C1CC12CCC2` (stereo not drawn) [Compound 1]: the IC50 in series [2] (setting [9]) worked out at 1.76 ± 0.371 µM.
As for `CN(C)C(=O)c1ccc(NCCC(=O)c2cc3ccccc3o2)cc1` [Compound 2], the IC50 in series [2] (setting [9]) turned out to be 13.3 ± 2.69 µM; in series [2] (n=3, read-out: TR assay IC50), 13.3 ± 2.69 µM; in series [4] it was 13.9 ± 3.5 µM. The “selectivity for TR with respect to hGR” value in series [4] is “not selective”.
Regarding `CCN(CC)CCOC(=O)c1ccc(NCCC(=O)c2ccc([N+](=O)[O-])cc2)cc1` [Compound 3, 2-(Diethylamino)ethyl 4-((3-(4-nitrophenyl)-3-oxopropyl)amino)benzoate], the IC50 in series [2] (setting [9]) is 7.51 ± 2.53 µM; in series [2] (n=3, read-out: TR assay IC50) it was 7.52 ± 2.53 µM; in series [2] (read-out: Luminescence assay IC50 (in vitro potency, TR)), 7.5 ± 2.5 µM; in series [3] (read-out: DTNB IC50), 4 ± 0.9 µM; in series [4], more than 85 µM; in series [1] it was 12.4 ± 1.09 µM. Moreover, in series [4], the “selectivity for TR with respect to hGR” value was “selective”. Also, the Kd in series [5] (Kd from kslow/kon ratio, kslow/kon) was 22.7 µM; in series [5] (steady state, read-out: steady state calculated Kd), 28.3 ± 5.12 µM. Moreover, the on-rate (kon) in series [5] (one-phase association model) is 3510 ± 1.09e+06 M⁻¹ s⁻¹. In series [5] (two-phase dissociation model), this compound gave a kfast of 5.88 ± 0.96 s⁻¹. Also, the kslow in series [5] (two-phase dissociation model) is 0.08 ± 0.02 s⁻¹. Further, in series [6] (30 μM TS2), the “competition with NADPH” value is “competitive for NADPH”. Besides, in series [6] (40 μM NADPH), the “effect on TS2 Km” value is “did not alter TS2 Km”. This compound yielded a promastigote mortality in series [1] (72 h after treatment, up to 100 μM) of 100%. The solubility in series [7] is more than 100 µM.
As for `N[C@@H](CCC(=O)N[C@@H](CS)C(=O)NCC(=O)NCCCCNCCCNC(=O)CNC(=O)[C@H](CS)NC(=O)CC[C@H](N)C(=O)O)C(=O)O` [TS2, N1,N8-bis(glutathionyl)spermidine], the Km in series [2] (luminescent assay, 0.5 nM TR, 12.5 μM NADPH, read-out: TS2 Km (apparent)) was 13.5 ± 3.8 µM; in series [3] (DTNB assay, 20 nM TR, 100 μM NADPH, read-out: TS2 Km (apparent)), 3.6 ± 0.5 µM; in series [8], 23 ± 1 µM.
